From patent US10556936B2, “Immunogenic proteins and fragments thereof from allergenic mites” (ALK-ABELLÓ A/S, priority 2016, dated 2020)

System: HDM-specific T cells expanded from PBMCs of HDM-allergic individuals
Experiment: T cell reactivity of peptides: IFN/IL-5 ELISPOT on in vitro expanded HDM-specific T cells
Assay type: cell-based, human
Conditions: for SFC/donor: individual peptides 10 μg/mL; for % responder: percentage of donors that produced a response against the peptide, 10 μg/mL
Description: Each sequence of an “L” cluster was aligned separately using the MEGA software tool with ClustalW. Fifteen-mer peptides overlapping by 10 amino acids were generated and the last 15-mer peptide was added when the sequence length was not divisible by 5, 14,783 unique peptides remained.
HLA class II binding predictions optimized for global coverage were performed for the seven class II alleles (HLA-DRB1*03:01, HLA-DRB1*07:01, HLA-DRB1*15:01, HLA-DRB3*01:01, HLA-DRB3*02:02, HLA-DRB4*01:01 and HLA-DRB5*01:01) using the standalone version of the IEDB class II binding prediction tool. The median consensus percentile rank was estimated from the consensus percentile ranks for the seven alleles. Further, peptides with more than ten overlapping amino acids, which appeared because several occurrences of some sequence regions were repeated multiple times in the same sequence, were eliminated (e.g. “[…]” was repeated seven times in one sequence.) Variant peptides were also removed, retaining the better peptide based on the median consensus percentile rank and conservation among the sequences within its respective cluster. Peptides with median consensus percentile rank ≤10.0 and conserved in ≥35% of sequences in the same cluster were finally selected, also including additional selected peptides chosen to maximize DRB1 allele coverage, for a grand total of 2,589 peptides.
Peptides were purchased from Mimotopes (Clayton, Victoria, Australia) or A and A (San Diego, Calif.) as crude material on a small (1-mg) scale. Individual peptides were resuspended in DMSO at a final concentration of 40 mg/mL. Peptide “megapools” of 30-65 peptides/pool were generated. Following lyophilization, each pool was reconstituted in DMSO so that each peptide was present at a concentration of 4 mg/mL. To facilitate deconvolution of positive megapools, each megapool was further broken down in 2-6 “mesopools” (259 mesopools in total), each containing 8-14 peptides. Each mesopool was then deconvoluted to identify individual positive peptides. To avoid dimerization and polymerization of peptides by intra- and intermolecular disulfide bond formation between cysteine residues, this amino acid were in some instances substituted by a serine residue in the peptides. Such peptides are herein marked with an asterisk (*).
PBMCs from European HDM-allergic individuals were recruited in the Copenhagen region (defined by clinical history of allergy to house dust mite and specific IgE to group 1 and group 2 major allergens from Der p and/or Der f and with measured specific IgE (CAP) >0.7 kU/L towards Der p/f 1 or Der p/f 2. In addition, PBMCs from 10 US HDM-allergic individuals were recruited in San Diego (defined by Der p extract IgE titers greater than 0.35 kUA/L). PBMCs were isolated from whole blood by density gradient centrifugation according to manufacturers' instructions (Ficoll-Hypaque, Amersham Biosciences, Uppsala, Sweden). Der p- and Der f-specific extract IgE titers were determined using the ImmunoCAP system (Thermo Fisher, Uppsala, Sweden). In a separate series of experiments, pooled plasma from 10 European and 10 American HDM atopic individuals from the San Diego region, respectively, was utilized to run 2D immunoblots to elucidate IgE and IgG reactivity towards the proteins, which had at least one peptide with positive T cell response.
HDM-specific T cells were expanded in vitro. Briefly, PBMCs from HDM-allergic individuals were stimulated with HDM extract (5 μg/mL) and expanded over 14-17 days with IL-2 (added every 3 days). Cells were harvested on day 14, restimulated with HDM extract (5 μg/mL), individual peptides (10 μg/mL) or peptide pools (5 μg/mL) and screened for […]/IL-5-production by ELISPOT. Criteria for positivity were 100 or 20 spot forming cells (SFCs) per 10^6 PBMCs for peptide pools or single peptides, respectively, p<0.05, and a stimulation index >2.

With “124 (DINYVFFRSGSIIPI; Immunogenic fragment) [compound 124]” the SFC/donor was 20 SFC/donor and the “% responder” value was 10%.

With “147 (LGMQICFDMIFKTPG; Immunogenic fragment) [compound 147]” the SFC/donor was 28 SFC/donor and the “% responder” value was 20%.

For “93 (QVVQQYHNLIGLPAM; Immunogenic fragment) [compound 93]”, the SFC/donor was 11 SFC/donor and the “% responder” value was 10%.

In the case of “60 (HVAFNYAKMLDSAML; Immunogenic fragment) [compound 60]”, the SFC/donor is reported as 75 SFC/donor and the “% responder” value is reported as 5%.

In the case of “66 (IVQEVHQQFDSFVGQ; Immunogenic fragment) [compound 66]”, the SFC/donor is reported as 6 SFC/donor and the “% responder” value is reported as 5%.

With “54 (FKLVAMKFMMASEDL; Immunogenic fragment) [compound 54]” the SFC/donor was 6 SFC/donor and the “% responder” value was 5%.

For “142 (DKKFLFNTAVLFDRQ; Immunogenic fragment) [compound 142]”, the SFC/donor was 22 SFC/donor and the “% responder” value was 10%.

With “130 (SIIFDGKPYYQFIYT; Immunogenic fragment) [compound 130]” the SFC/donor was 55 SFC/donor and the “% responder” value was 5%.

In the case of “89 (RAPFRKNTNWKRYTQ; Immunogenic fragment) [compound 89]”, the SFC/donor is reported as 9 SFC/donor and the “% responder” value is reported as 5%.

For “51 (RGIVGEIIRRFEAKG; Immunogenic fragment) [compound 51]”, the SFC/donor was 5 SFC/donor and the “% responder” value was 5%.

“96 (LPDFIRNVLHKNGQK; Immunogenic fragment) [compound 96]” was tested, and the SFC/donor was 5 SFC/donor and the “% responder” value was 10%.

“65 (LISIPEFVRKIPGRK; Immunogenic fragment) [compound 65]” was tested, and the SFC/donor was 6 SFC/donor and the “% responder” value was 5%.

“77 (ANQPISSLKNRLHYR; Immunogenic fragment) [compound 77]” was tested, and the SFC/donor was 4 SFC/donor and the “% responder” value was 5%.

With “109 (HWNGDILSDWSSMRW; Immunogenic fragment) [compound 109]” the SFC/donor was 88 SFC/donor and the “% responder” value was 25%.

For “101 (RHYNDQLHYNLHNLY; Immunogenic fragment) [compound 101]”, the SFC/donor was 10 SFC/donor and the “% responder” value was 5%.

“117 (IRAARSSLQYRYRFL; Immunogenic fragment) [compound 117]” was tested, and the SFC/donor was 20 SFC/donor and the “% responder” value was 20%.

In the case of “LTMLLDWRNLYPRKY (Immunogenic fragment) [Peptide 185, fragment of A0023 Der f]”, the SFC/donor is reported as 15 SFC/donor and the “% responder” value is reported as 5%.

For “100 (TLRHKTLCMTARHYN; Immunogenic fragment) [compound 100]”, the SFC/donor was 12 SFC/donor and the “% responder” value was 10%.

In the case of “105 (SLSMAMATNAALTKL; Immunogenic fragment) [compound 105]”, the SFC/donor is reported as 9 SFC/donor and the “% responder” value is reported as 5%.

In the case of “138 (YHNLIGLPAMPPFWS; Immunogenic fragment) [compound 138]”, the SFC/donor is reported as 3 SFC/donor and the “% responder” value is reported as 5%.

“DWRNLYPRKYAFALP (Immunogenic fragment) [Peptide 186, fragment of A0023 Der f]” was tested, and the SFC/donor was 64 SFC/donor and the “% responder” value was 5%.

In the case of “113 (LCIRWYQLGAFYSFA; Immunogenic fragment) [compound 113]”, the SFC/donor is reported as 40 SFC/donor and the “% responder” value is reported as 15%.

In the case of “GYAFIMESSSAEHEI (Immunogenic fragment) [Peptide 184, fragment of A0023 Der f]”, the SFC/donor is reported as 16 SFC/donor and the “% responder” value is reported as 10%.

In the case of “141 (KHEIFVVADLIDRKS; Immunogenic fragment) [compound 141]”, the SFC/donor is reported as 7 SFC/donor and the “% responder” value is reported as 5%.

“55 (KFMMASEDLLKKHYA; Immunogenic fragment) [compound 55]” was tested, and the SFC/donor was 5 SFC/donor and the “% responder” value was 5%.

In the case of “81 (DDGNLISRALPHLGV; Immunogenic fragment) [compound 81]”, the SFC/donor is reported as 8 SFC/donor and the “% responder” value is reported as 5%.

“132 (GKPYYQFIYTTNNML; Immunogenic fragment) [compound 132]” was tested, and the SFC/donor was 44 SFC/donor and the “% responder” value was 15%.

“143 (FNTAVLFDRQGKLLG; Immunogenic fragment) [compound 143]” was tested, and the SFC/donor was 11 SFC/donor and the “% responder” value was 10%.

For “129 (INILGVPKLPTSFKL; Immunogenic fragment) [compound 129]”, the SFC/donor was 24 SFC/donor and the “% responder” value was 20%.

With “47 (ELLKKKGIIPGIKVD; Immunogenic fragment) [compound 47]” the SFC/donor was 12 SFC/donor and the “% responder” value was 5%.

With “146 (LLVIDTELGRLGMQI; Immunogenic fragment) [compound 146]” the SFC/donor was 54 SFC/donor and the “% responder” value was 20%.

With “114 (YQLGAFYSFARNHND; Immunogenic fragment) [compound 114]” the SFC/donor was 35 SFC/donor and the “% responder” value was 15%.

In the case of “49 (KGIIPGIKVDTGVVT; Immunogenic fragment) [compound 49]”, the SFC/donor is reported as 83 SFC/donor and the “% responder” value is reported as 10%.

For “50 (FIMLKPDAVQRGIVG; Immunogenic fragment) [compound 50]”, the SFC/donor was 7 SFC/donor and the “% responder” value was 5%.

“149 (SSSQYQMAWAFGNNV; Immunogenic fragment) [compound 149]” was tested, and the SFC/donor was 12 SFC/donor and the “% responder” value was 10%.

With “125 (FFRSGSIIPIQGPQN; Immunogenic fragment) [compound 125]” the SFC/donor was 5 SFC/donor and the “% responder” value was 5%.

“64 (LYNPLGHRLINHTVR; Immunogenic fragment) [compound 64]” was tested, and the SFC/donor was 6 SFC/donor and the “% responder” value was 5%.

“126 (TQNINFINILGVPKL; Immunogenic fragment) [compound 126]” was tested, and the SFC/donor was 72 SFC/donor and the “% responder” value was 15%.

In the case of “133 (QFIYTTNNMLIIQTK; Immunogenic fragment) [compound 133]”, the SFC/donor is reported as 47 SFC/donor and the “% responder” value is reported as 5%.

“145 (PPKPELLVIDTELGR; Immunogenic fragment) [compound 145]” was tested, and the SFC/donor was 228 SFC/donor and the “% responder” value was 30%.

“53 (FEAKGFKLVAMKFMM; Immunogenic fragment) [compound 53]” was tested, and the SFC/donor was 7 SFC/donor and the “% responder” value was 5%.

“108 (NKRPFIISRATAPGH; Immunogenic fragment) [compound 108]” was tested, and the SFC/donor was 146 SFC/donor and the “% responder” value was 5%.

With “EPFMINQLAALIRRE (Immunogenic fragment) [Peptide 181, fragment of A0023 Der f/p]” the SFC/donor was 40 SFC/donor and the “% responder” value was 10%.

With “92 (GPKPEQVVQQYHNLI; Immunogenic fragment) [compound 92]” the SFC/donor was 1 SFC/donor and the “% responder” value was 5%.

“87 (QSIFDINLAYMVYSD; Immunogenic fragment) [compound 87]” was tested, and the SFC/donor was 69 SFC/donor and the “% responder” value was 20%.

With “97 (NATEYWMDMFAEYHK; Immunogenic fragment) [compound 97]” the SFC/donor was 227 SFC/donor and the “% responder” value was 25%.

With “107 (NEALKTTLNKRPFII; Immunogenic fragment) [compound 107]” the SFC/donor was 9 SFC/donor and the “% responder” value was 5%.

“128 (YQTNQSIIILEILGI; Immunogenic fragment) [compound 128]” was tested, and the SFC/donor was 10 SFC/donor and the “% responder” value was 10%.

With “79 (GNDLKNLSSKVLPNL; Immunogenic fragment) [compound 79]” the SFC/donor was 5 SFC/donor and the “% responder” value was 5%.

With “67 (LMVHRRLLHDDYFGV; Immunogenic fragment) [compound 67]” the SFC/donor was 2 SFC/donor and the “% responder” value was 5%.
